Biological target: T1, Tyrosine-protein phosphatase non-receptor type 11 (Homo sapiens, UniProt Q06124)
T1 sequence (Q06124 whole entry): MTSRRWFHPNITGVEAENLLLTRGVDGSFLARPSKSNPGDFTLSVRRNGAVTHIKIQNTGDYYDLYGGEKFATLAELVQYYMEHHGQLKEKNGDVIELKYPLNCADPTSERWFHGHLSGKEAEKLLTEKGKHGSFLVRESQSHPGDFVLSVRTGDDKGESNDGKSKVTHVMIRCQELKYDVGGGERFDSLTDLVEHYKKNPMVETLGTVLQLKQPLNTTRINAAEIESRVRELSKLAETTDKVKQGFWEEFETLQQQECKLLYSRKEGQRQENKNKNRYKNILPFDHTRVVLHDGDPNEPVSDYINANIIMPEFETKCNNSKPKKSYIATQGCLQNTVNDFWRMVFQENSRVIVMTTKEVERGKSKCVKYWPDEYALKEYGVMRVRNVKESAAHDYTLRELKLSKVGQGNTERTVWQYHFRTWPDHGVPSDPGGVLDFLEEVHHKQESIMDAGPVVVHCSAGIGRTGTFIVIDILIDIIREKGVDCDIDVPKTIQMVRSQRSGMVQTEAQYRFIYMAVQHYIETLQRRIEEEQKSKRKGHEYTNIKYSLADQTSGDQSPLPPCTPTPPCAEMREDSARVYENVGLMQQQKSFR
Assay: SHP2 Allosteric Inhibition Assay
Method: The phosphatase reaction was conducted in 384-well black polystyrene plates (Corning, Cat #3575) with flat bottom, low edge and non-binding surface at room temperature and 25 μl final volume of the following buffer condition: 60 mM HEPES, pH 7.2, 75 mM NaCl, 75 mM KCl, 1 mM EDTA, 0.05% P-20, 5 mM DTT.The following experiments were conducted to monitor the SHP2 inhibition by the compounds (at concentrations of 0.0003-100 μM) in this invention:Wherein, incubate 0.5 nM SHP2 with 0.5 μM peptide IRS1_pY1172 (dPEG8) pY1222 (sequence: H2N-LN (pY) IDLDLV (dPEG8) LST (pY) ASINFQK-amide) (SEQ ID NO: 1) (WO2016/203406A1). After incubation at 25° C. for 30-60 minutes, the alternative substrate DiFMUP (Invitrogen, cat #D6567) was added to the reaction and incubated at 25° C. for 30 minutes. The reaction was then […] by adding 5 μL of a 160 μM bpV (Phen) solution (Enzo Life Sciences cat #ALX-270-204). The fluorescence signal was monitored using a microplate reader (VARIOSKAN LUX, Thermo) with excitation and emission wavelengths of 340 nm and 450 nm, respectively. The inhibitory dose-response curve is analyzed using a standardized IC50 regression curve based on control-based normalization.

C[C@@H]1OCC2(CCN(c3cnc(Sc4cccc(-c5cscn5)c4Cl)cn3)CC2)[C@@H]1N [US11827644, Example 33]
IC50: 2.62 nM
